Test results: PubChem BioAssay (NCI)
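GI50 is the concentration that inhibits growth by half. TGI: total growth inhibition.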

Experiments:
Experiment in all cases: NCI anticancer screen, dose series, 384-well format
[1] = test system: 786-0 renal
[2] = test system: A498 renal
[3] = test system: A549 NSCLC
[4] = test system: ACHN renal
[5] = test system: BT-549 breast
[6] = test system: CAKI-1 renal
[7] = test system: CCRF-CEM leukemia
[8] = test system: COLO 205 colon
[9] = test system: DU-145 prostate
[10] = test system: EKVX NSCLC
[11] = test system: HCC-2998 colon
[12] = test system: HCT-15 colon
[13] = test system: HL-60(TB) leukemia
[14] = test system: HOP-62 NSCLC
[15] = test system: HOP-92 NSCLC
[16] = test system: HS 578T breast
[17] = test system: HT29 colon
[18] = test system: IGROV1 ovarian
[19] = test system: K-562 leukemia
[20] = test system: KM12 colon
[21] = test system: LOX IMVI melanoma
[22] = test system: M14 melanoma
[23] = test system: MALME-3M melanoma
[24] = test system: MCF7 breast
[25] = test system: MDA-MB-231 breast
[26] = test system: MDA-MB-435 melanoma
[27] = test system: MDA-MB-468 breast
[28] = test system: MOLT-4 leukemia
[29] = test system: NCI-H226 lung
[30] = test system: NCI-H23 lung
[31] = test system: NCI-H322M lung
[32] = test system: NCI-H460 NSCLC
[33] = test system: NCI-H522 lung
[34] = test system: NCI/ADR-RES ovarian
[35] = test system: OVCAR-3 ovarian
[36] = test system: OVCAR-4 ovarian
[37] = test system: OVCAR-5 ovarian
[38] = test system: OVCAR-8 ovarian
[39] = test system: PC-3 prostate
[40] = test system: RPMI-8226 leukemia
[41] = test system: RXF 393 renal
[42] = test system: SF-268 CNS
[43] = test system: SF-295 CNS
[44] = test system: SF-539 CNS
[45] = test system: SK-MEL-28 melanoma
[46] = test system: SK-MEL-5 melanoma
[47] = test system: SK-OV-3 ovarian
[48] = test system: SN12C renal
[49] = test system: SNB-19 CNS
[50] = test system: SNB-75 CNS
[51] = test system: SR leukemia
[52] = test system: SW-620 colon
[53] = test system: T-47D breast
[54] = test system: TK-10 renal
[55] = test system: U251 glioblastoma
[56] = test system: UACC-257 melanoma
[57] = test system: UACC-62 melanoma
[58] = test system: UO-31 renal
[59] = test system: HCT-116 colon
[60] = test system: SK-MEL-2 melanoma

COc1cc2c(Oc3ccc4[nH]c(C)cc4c3F)ncnc2cc1OCCCN1CCCC1
GI50 [1]: 1.33 µM | TGI [1]: 2.63 µM | GI50 [2]: 1.24 µM | TGI [2]: 2.59 µM | GI50 [3]: 1.46 µM | TGI [3]: 2.97 µM | GI50 [4]: 1.2 µM | TGI [4]: 2.64 µM | GI50 [5]: 1.04 µM | TGI [5]: 2.22 µM | GI50 [6]: 1.05 µM | TGI [6]: 2.36 µM | GI50 [7]: 1.63 µM | TGI [7]: 2.99 µM | GI50 [8]: 1.69 µM | TGI [8]: 3.35 µM | GI50 [9]: 1.92 µM | TGI [9]: 3.77 µM | GI50 [10]: 1.16 µM | TGI [10]: 2.84 µM | GI50 [11]: 1.59 µM | TGI [11]: 2.97 µM | GI50 [12]: 1.21 µM | TGI [12]: 2.53 µM | GI50 [13]: 1.93 µM | TGI [13]: 3.35 µM | GI50 [14]: 1.5 µM | TGI [14]: 2.93 µM | GI50 [15]: 0.578 µM | TGI [15]: 1.92 µM | GI50 [16]: 1.26 µM | TGI [16]: 2.53 µM | GI50 [17]: 1.46 µM | TGI [17]: 2.8 µM | GI50 [18]: 0.632 µM | TGI [18]: 1.95 µM | GI50 [19]: 1.13 µM | TGI [19]: 2.37 µM | GI50 [20]: 1.81 µM | TGI [20]: 3.28 µM | GI50 [21]: 1.62 µM | TGI [21]: 2.99 µM | GI50 [22]: 1.68 µM | TGI [22]: 3.06 µM | GI50 [23]: 1.54 µM | TGI [23]: 2.88 µM | GI50 [24]: 1.4 µM | TGI [24]: 2.74 µM | GI50 [25]: 1.76 µM | TGI [25]: 3.53 µM | GI50 [26]: 1.77 µM | TGI [26]: 3.41 µM | GI50 [27]: 1.04 µM | TGI [27]: 2.24 µM | GI50 [28]: 1.38 µM | TGI [28]: 2.68 µM | GI50 [29]: 0.306 µM | TGI [29]: 1.96 µM | GI50 [30]: 1.15 µM | TGI [30]: 2.8 µM | GI50 [31]: 1.79 µM | TGI [31]: 4.56 µM | GI50 [32]: 1.78 µM | TGI [32]: 3.27 µM | GI50 [33]: 1.55 µM | TGI [33]: 2.91 µM | GI50 [34]: 2.35 µM | TGI [34]: 5.9 µM | GI50 [35]: 1.63 µM | TGI [35]: 3.06 µM | GI50 [36]: 1.14 µM | TGI [36]: 2.43 µM | GI50 [37]: 1.39 µM | TGI [37]: 3.18 µM | GI50 [38]: 1.58 µM | TGI [38]: 2.96 µM | GI50 [39]: 1.77 µM | TGI [39]: 3.3 µM | GI50 [40]: 1.61 µM | TGI [40]: 2.97 µM | GI50 [41]: 1.38 µM | TGI [41]: 2.69 µM | GI50 [42]: 1.66 µM | TGI [42]: 3.22 µM | GI50 [43]: 1.73 µM | TGI [43]: 3.13 µM | GI50 [44]: 0.488 µM | TGI [44]: 1.83 µM | GI50 [45]: 1.66 µM | TGI [45]: 3.03 µM | GI50 [46]: 1.3 µM | TGI [46]: 2.58 µM | GI50 [47]: 1.26 µM | TGI [47]: 2.53 µM | GI50 [48]: 0.591 µM | TGI [48]: 2.41 µM | GI50 [49]: 1.57 µM | TGI [49]: 4.71 µM | GI50 [50]: 1.32 µM | TGI [50]: 2.74 µM | GI50 [51]: 1.56 µM | TGI [51]: 2.91 µM | GI50 [52]: 1.63 µM | TGI [52]: 3.1 µM | GI50 [53]: 1.3 µM | TGI [53]: 2.58 µM | GI50 [54]: 1.76 µM | TGI [54]: 3.28 µM | GI50 [55]: 1.58 µM | TGI [55]: 3 µM | GI50 [56]: 1.61 µM | TGI [56]: 2.97 µM | GI50 [57]: 1.63 µM | TGI [57]: 3 µM | GI50 [58]: 1.39 µM | TGI [58]: 2.77 µM

O=C(c1ccc(Oc2ccccc2)cc1Cl)c1c[nH]c2ncnc(N[C@@H]3CC[C@@H](CO)OC3)c12
GI50 [1]: 1.11 µM | TGI [1]: 4.61 µM | GI50 [2]: 0.519 µM | TGI [2]: 2.77 µM | GI50 [3]: 0.244 µM | TGI [3]: 1.54 µM | GI50 [4]: 0.121 µM | TGI [4]: 0.983 µM | GI50 [5]: 0.313 µM | TGI [5]: 1.46 µM | GI50 [6]: 0.261 µM | TGI [6]: 1.44 µM | GI50 [7]: 1.59 µM | TGI [7]: 3.4 µM | GI50 [8]: 0.0177 µM | TGI [8]: 0.113 µM | GI50 [9]: 0.354 µM | TGI [9]: 1.48 µM | GI50 [10]: 0.113 µM | TGI [10]: 1.07 µM | GI50 [11]: 0.0299 µM | TGI [11]: 0.204 µM | GI50 [59]: 0.248 µM | TGI [59]: 1.11 µM | GI50 [12]: 0.51 µM | TGI [12]: 3.34 µM | GI50 [13]: 0.0368 µM | TGI [13]: 0.196 µM | GI50 [14]: 0.638 µM | TGI [14]: 2.66 µM | GI50 [15]: 0.273 µM | TGI [15]: 1.19 µM | GI50 [16]: 0.7 µM | TGI [16]: 2.12 µM | GI50 [17]: 0.0334 µM | TGI [17]: 1.3 µM | GI50 [18]: 0.0306 µM | TGI [18]: 0.987 µM | GI50 [19]: 0.153 µM | TGI [19]: 0.399 µM | GI50 [20]: 0.0194 µM | TGI [20]: 0.171 µM | GI50 [21]: 0.0331 µM | TGI [21]: 0.161 µM | TGI [22]: 0.0489 µM | TGI [23]: 0.0247 µM | GI50 [24]: 0.255 µM | TGI [24]: 1.91 µM | GI50 [25]: 0.0463 µM | TGI [25]: 0.207 µM | GI50 [26]: 0.017 µM | TGI [26]: 0.17 µM | GI50 [27]: 0.303 µM | TGI [27]: 1.87 µM | GI50 [28]: 0.296 µM | TGI [28]: 1.82 µM | GI50 [29]: 0.135 µM | TGI [29]: 0.937 µM | GI50 [30]: 0.067 µM | TGI [30]: 0.385 µM | GI50 [31]: 0.249 µM | TGI [31]: 1.78 µM | GI50 [32]: 0.771 µM | TGI [32]: 3.65 µM | GI50 [33]: 0.0494 µM | TGI [33]: 0.366 µM | GI50 [34]: 1.13 µM | TGI [34]: 2.48 µM | GI50 [35]: 0.13 µM | TGI [35]: 3.18 µM | GI50 [36]: 1.13 µM | TGI [36]: 7.2 µM | GI50 [37]: 0.153 µM | TGI [37]: 0.938 µM | GI50 [38]: 0.39 µM | TGI [38]: 2.08 µM | GI50 [39]: 2.32 µM | TGI [39]: 11.6 µM | GI50 [40]: 0.696 µM | TGI [40]: 2.19 µM | GI50 [41]: 0.21 µM | TGI [41]: 0.92 µM | GI50 [42]: 0.482 µM | TGI [42]: 4.89 µM | GI50 [43]: 1 µM | TGI [43]: 3.33 µM | GI50 [44]: 0.338 µM | TGI [44]: 1.6 µM | GI50 [60]: 0.127 µM | TGI [60]: 0.289 µM | GI50 [45]: 0.0133 µM | TGI [45]: 0.0558 µM | GI50 [46]: 0.0337 µM | TGI [46]: 1.47 µM | GI50 [47]: 0.201 µM | TGI [47]: 0.965 µM | GI50 [48]: 0.193 µM | TGI [48]: 1.38 µM | GI50 [49]: 0.372 µM | TGI [49]: 3.95 µM | GI50 [50]: 0.801 µM | TGI [50]: 2.28 µM | GI50 [51]: 0.186 µM | TGI [51]: 0.343 µM | GI50 [52]: 0.151 µM | TGI [52]: 1.27 µM | GI50 [53]: 0.52 µM | TGI [53]: 3.21 µM | GI50 [54]: 0.185 µM | TGI [54]: 0.543 µM | GI50 [55]: 0.462 µM | TGI [55]: 2.51 µM | GI50 [56]: 0.0217 µM | TGI [56]: 0.0839 µM | GI50 [57]: 0.0107 µM | TGI [57]: 0.0547 µM | GI50 [58]: 0.305 µM | TGI [58]: 1.45 µM
